How the values were obtained:
[1] = system: kit2-kit* (DNA, G4) CGGGCGGGCGCGAGGGAGGGGAGGCGAGGAGGGGCGTGGCCGGC; test: CD titration; conditions: K+ (150 mM in Methods, 100 mM in Figure S3 legend); 10 mM Tris, pH 7.5, 25 °C; 4 µM DNA
[2] = system: kit* (DNA, G4) GGCGAGGAGGGGCGTGGCCGGC; test: CD titration; conditions: K+ (150 mM in Methods, 100 mM in Figure S3 legend); 10 mM Tris, pH 7.5, 25 °C; 4 µM DNA
[3] = system: kit* (DNA, G4) GGCGAGGAGGGGCGTGGCCGGC; test: SPR steady state; conditions: 150 mM K+; 10 mM Tris, pH 7.5, 25 °C; apparent; one-site plus non-specific fit; DMSO < 1%
[4] = system: kit*5AP (DNA, G4, 2-aminopurine at 5 (replaces A)) GGCGAGGAGGGGCGTGGCCGGC; test: 2-aminopurine fluorescence titration; conditions: 150 mM K+; 10 mM Tris, pH 7.5, 25 °C; apparent; 0.5 µM DNA, single-site fit
[5] = system: kit*8AP (DNA, G4, 2-aminopurine at 8 (replaces A)) GGCGAGGAGGGGCGTGGCCGGC; test: 2-aminopurine fluorescence titration; conditions: 150 mM K+; 10 mM Tris, pH 7.5, 25 °C; apparent; 0.5 µM DNA, single-site fit

Row | SMILES | binding [1] | binding [2] | Kd [3] [nM] | Kd [4] [nM] | Kd [5] [nM]
1 | C(=NNC1=NCCN1)c1cccc2cc3cccc(C=NNC4=NCCN4)c3cc12 | yes | yes | 6710 ± 1260 | 2240 ± 170 | 1780 ± 150
2 | NCCCC[C@H](N)C(=O)NCCC(=O)Nc1cccc2c1C(=O)c1cccc(NC(=O)CCNC(=O)[C@@H](N)CCCCN)c1C2=O | yes | yes | 510 ± 90 | 320 ± 20 | 310 ± 20

From PMC7795597 (2020)
